Laboratory results taken from patent publication US9686992B2, “Pesticidal mixtures including spiroheterocyclic pyrrolidine diones” (Syngenta Participations AG, priority 2012, dated 2017).

Columns and labels:
[1] = system: Myzus persicae (Green Peach Aphid); test: Myzus persicae feeding/residual contact activity, preventive (sunflower leaf discs); type: in vivo; conditions: single active ingredient, 6 DAT
Description: (§1) The action to be expected E for a given active ingredient combination obeys the so-called COLBY formula and can be calculated as follows (COLBY, S. R. “Calculating synergistic and antagonistic responses of herbicide combination”. Weeds, Vol. 15, pages 20-22; 1967):
(§2) ppm=milligrams of active ingredient (=a.i.) per liter of spray mixture
(§3) X=% action by active ingredient A) using p ppm of active ingredient
(§4) Y=% action by active ingredient B) using q ppm of active ingredient.
(§5) According to COLBY, the expected (additive) action of active ingredients A)+B) using p+q ppm of active ingredient is
(§6) If the action actually observed (0) is greater than the expected action (E), then the action of the combination is super-additive, i.e. there is a synergistic effect. In mathematical terms the synergism factor SF corresponds to O/E. In the agricultural practice an SF of ≧1.2 indicates significant improvement over the purely complementary addition of activities (expected activity), while an SF of ≦0.9 in the practical application routine signals a loss of activity compared to the expected activity.
Myzus persicae (Green Peach Aphid):
Feeding/Residual Contact Activity, Preventive
Sunflower leaf discs were placed on agar in a 24-well microtiter plate and sprayed with the DMSO test solutions of Mixtures (as provided by Table 45). After drying, the leaf discs were infested with an aphid population of mixed ages. After an incubation period of 6 DAT (days after treatment), samples were checked for mortality.

[2] = system: Tetranychus urticae (Two-Spotted Spider Mite); test: Tetranychus urticae feeding/contact activity, preventive (bean leaf discs); type: in vivo; conditions: single active ingredient, mobile stages
Description: as §1, §2, §3, §4, §5, §6
Tetranychus urticae (Two-Spotted Spider Mite): Feeding/Contact Activity, Preventive
Bean leaf discs on agar in 24-well microtiter plates were sprayed with the DMSO test solutions of certain Mixtures (as provided by Table 45). After drying, the leaf discs were infested with mite populations of mixed ages. 8 days later, discs were checked for mortality against mobile stages.

Question: Which results are given for `N#CCNC(=O)c1cnccc1C(F)(F)F` [Flonicamid]?
Answer: AVERAGE DEAD IN % AFTER 6 DAYS ([1]; 0.75 ppm AI): 0%; AVERAGE DEAD IN % AFTER 6 DAYS ([1]; 1.5 ppm AI): 0%; AVERAGE DEAD IN % AFTER 6 DAYS ([1]; 3 ppm AI): 7.5%; AVERAGE DEAD IN % AFTER 6 DAYS ([1]; 6 ppm AI): 40%; AVERAGE DEAD IN % AFTER 6 DAYS ([1]; 12 ppm AI): 82.5%; AVERAGE DEAD IN % AFTER 8 DAYS ([2]; 50 ppm AI): 0%; AVERAGE DEAD IN % AFTER 8 DAYS ([2]; 100 ppm AI): 0%; AVERAGE DEAD IN % AFTER 8 DAYS ([2]; 200 ppm AI): 0%; AVERAGE DEAD IN % AFTER 8 DAYS ([2]; 400 ppm AI): 0%; AVERAGE DEAD IN % AFTER 8 DAYS ([2]; 800 ppm AI): 12.5%
